Like-named read-outs stand apart in the source and are kept apart here.
Columns and labels:
Assay in all cases: Ambit kinase profiling, competition binding
EGFR(E746-A750del) = target: T1, EGFR(E746-A750del) (Homo sapiens, UniProt P00533, DEL746-750); settings: for % Competition: 10 µM
T1 construct: purchased Ambit Biosciences (KINOMEscan)
Method: (§1) Also included in the kinase profile are four isoforms of PKC (δ, ε, η, θ) and eight isoforms of CAMKs (CAMKIα, δ, γ; CAMKIIα, β, δ, γ; CAMK4).
(§2) The global kinase profiling experiment was performed by Ambit Biosciences.

TNIK = target: T2, TNIK (Homo sapiens, UniProt Q9UKE5)
T2 construct: purchased Ambit Biosciences (KINOMEscan)
Method: as §1, §2

STK36 = target: T3, STK36 (Homo sapiens, UniProt Q9NRP7)
T3 construct: purchased Ambit Biosciences (KINOMEscan)
T3 sequence (Q9NRP7 1-1315): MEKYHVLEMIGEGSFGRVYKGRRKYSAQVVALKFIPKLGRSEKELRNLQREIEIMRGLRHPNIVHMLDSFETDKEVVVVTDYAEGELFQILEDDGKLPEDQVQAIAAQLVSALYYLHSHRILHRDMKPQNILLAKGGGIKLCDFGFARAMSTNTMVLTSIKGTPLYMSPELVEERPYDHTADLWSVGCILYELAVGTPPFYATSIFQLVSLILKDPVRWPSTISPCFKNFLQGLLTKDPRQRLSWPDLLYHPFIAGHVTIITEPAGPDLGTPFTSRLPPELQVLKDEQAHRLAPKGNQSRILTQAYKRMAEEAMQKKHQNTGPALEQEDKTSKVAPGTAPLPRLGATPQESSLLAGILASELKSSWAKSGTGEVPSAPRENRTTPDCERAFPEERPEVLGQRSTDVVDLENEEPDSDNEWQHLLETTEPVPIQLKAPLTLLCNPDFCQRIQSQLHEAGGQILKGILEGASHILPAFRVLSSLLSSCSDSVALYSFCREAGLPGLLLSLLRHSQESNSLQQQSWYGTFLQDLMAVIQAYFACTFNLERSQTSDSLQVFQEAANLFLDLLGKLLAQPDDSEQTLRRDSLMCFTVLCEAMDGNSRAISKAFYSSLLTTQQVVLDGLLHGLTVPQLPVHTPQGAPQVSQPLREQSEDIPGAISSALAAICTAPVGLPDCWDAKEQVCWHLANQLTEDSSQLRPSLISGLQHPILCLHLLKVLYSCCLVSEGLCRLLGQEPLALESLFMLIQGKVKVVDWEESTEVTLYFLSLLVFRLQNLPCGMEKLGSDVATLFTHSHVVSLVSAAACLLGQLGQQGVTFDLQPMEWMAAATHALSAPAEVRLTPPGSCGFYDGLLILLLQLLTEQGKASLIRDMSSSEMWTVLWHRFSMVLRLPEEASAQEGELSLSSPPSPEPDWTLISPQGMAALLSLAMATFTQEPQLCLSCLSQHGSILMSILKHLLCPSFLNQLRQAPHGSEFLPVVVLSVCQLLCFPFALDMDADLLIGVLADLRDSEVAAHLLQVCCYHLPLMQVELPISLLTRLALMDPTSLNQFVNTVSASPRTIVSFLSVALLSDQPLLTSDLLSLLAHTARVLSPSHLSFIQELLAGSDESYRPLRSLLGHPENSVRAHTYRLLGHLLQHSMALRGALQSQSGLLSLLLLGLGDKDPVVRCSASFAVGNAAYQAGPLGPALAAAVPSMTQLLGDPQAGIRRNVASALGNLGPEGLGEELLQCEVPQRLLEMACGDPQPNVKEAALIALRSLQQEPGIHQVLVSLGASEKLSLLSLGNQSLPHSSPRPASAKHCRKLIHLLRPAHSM
Method: as §1, §2

EPHA8 = target: T4, EPHA8 (Homo sapiens, UniProt P29322)
T4 construct: purchased Ambit Biosciences (KINOMEscan)
T4 sequence (P29322 28-1005): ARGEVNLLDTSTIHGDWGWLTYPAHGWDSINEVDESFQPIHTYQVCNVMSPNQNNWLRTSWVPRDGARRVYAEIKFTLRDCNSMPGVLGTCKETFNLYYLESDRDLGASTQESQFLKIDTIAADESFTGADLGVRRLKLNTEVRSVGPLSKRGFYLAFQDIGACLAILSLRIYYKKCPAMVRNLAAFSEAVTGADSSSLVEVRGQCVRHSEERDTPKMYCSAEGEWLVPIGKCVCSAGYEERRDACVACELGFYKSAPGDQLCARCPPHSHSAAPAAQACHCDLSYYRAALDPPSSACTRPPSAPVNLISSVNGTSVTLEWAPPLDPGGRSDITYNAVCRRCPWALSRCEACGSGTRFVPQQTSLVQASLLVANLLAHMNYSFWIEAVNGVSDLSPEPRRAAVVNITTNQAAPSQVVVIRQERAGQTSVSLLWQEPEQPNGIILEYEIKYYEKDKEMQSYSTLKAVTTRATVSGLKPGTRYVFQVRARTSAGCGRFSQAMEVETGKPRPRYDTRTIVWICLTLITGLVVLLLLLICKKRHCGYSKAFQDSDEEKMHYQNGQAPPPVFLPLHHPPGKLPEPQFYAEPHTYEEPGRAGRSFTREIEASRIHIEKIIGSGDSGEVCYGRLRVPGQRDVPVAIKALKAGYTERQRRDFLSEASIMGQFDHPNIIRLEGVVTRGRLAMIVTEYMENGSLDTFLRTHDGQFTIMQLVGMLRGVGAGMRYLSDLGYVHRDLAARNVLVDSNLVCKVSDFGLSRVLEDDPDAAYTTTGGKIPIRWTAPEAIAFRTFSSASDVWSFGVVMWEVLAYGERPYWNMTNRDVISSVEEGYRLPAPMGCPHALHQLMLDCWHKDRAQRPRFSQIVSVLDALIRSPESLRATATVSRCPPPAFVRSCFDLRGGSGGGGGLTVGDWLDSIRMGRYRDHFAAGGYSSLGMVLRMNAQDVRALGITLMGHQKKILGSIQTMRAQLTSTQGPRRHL
Method: as §1, §2

YES = target: T5, YES (Homo sapiens, UniProt P07947)
T5 construct: purchased Ambit Biosciences (KINOMEscan)
Method: as §1, §2

[1] = target: T6, EGFR(L747-S752del, P753S) (Homo sapiens, UniProt P00533, DEL747-752/P753S); settings: for % Competition: 10 µM
T6 construct: purchased Ambit Biosciences (KINOMEscan)
Method: as §1, §2

T5 sequence (P07947 whole entry): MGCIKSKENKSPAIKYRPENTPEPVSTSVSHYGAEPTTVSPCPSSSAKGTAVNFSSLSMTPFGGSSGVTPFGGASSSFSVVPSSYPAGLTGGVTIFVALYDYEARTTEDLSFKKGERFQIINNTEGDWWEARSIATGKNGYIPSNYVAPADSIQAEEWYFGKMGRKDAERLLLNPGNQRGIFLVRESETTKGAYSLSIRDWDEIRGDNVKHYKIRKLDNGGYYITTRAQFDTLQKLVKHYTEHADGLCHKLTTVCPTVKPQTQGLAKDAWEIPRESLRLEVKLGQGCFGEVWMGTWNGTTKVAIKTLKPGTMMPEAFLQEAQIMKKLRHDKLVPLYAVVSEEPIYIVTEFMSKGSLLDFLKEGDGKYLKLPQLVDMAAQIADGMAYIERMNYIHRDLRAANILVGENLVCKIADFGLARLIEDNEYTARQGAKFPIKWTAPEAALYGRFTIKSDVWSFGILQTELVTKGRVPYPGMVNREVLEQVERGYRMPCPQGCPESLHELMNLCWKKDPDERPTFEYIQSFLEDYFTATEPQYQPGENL
T2 sequence (Q9UKE5 whole entry): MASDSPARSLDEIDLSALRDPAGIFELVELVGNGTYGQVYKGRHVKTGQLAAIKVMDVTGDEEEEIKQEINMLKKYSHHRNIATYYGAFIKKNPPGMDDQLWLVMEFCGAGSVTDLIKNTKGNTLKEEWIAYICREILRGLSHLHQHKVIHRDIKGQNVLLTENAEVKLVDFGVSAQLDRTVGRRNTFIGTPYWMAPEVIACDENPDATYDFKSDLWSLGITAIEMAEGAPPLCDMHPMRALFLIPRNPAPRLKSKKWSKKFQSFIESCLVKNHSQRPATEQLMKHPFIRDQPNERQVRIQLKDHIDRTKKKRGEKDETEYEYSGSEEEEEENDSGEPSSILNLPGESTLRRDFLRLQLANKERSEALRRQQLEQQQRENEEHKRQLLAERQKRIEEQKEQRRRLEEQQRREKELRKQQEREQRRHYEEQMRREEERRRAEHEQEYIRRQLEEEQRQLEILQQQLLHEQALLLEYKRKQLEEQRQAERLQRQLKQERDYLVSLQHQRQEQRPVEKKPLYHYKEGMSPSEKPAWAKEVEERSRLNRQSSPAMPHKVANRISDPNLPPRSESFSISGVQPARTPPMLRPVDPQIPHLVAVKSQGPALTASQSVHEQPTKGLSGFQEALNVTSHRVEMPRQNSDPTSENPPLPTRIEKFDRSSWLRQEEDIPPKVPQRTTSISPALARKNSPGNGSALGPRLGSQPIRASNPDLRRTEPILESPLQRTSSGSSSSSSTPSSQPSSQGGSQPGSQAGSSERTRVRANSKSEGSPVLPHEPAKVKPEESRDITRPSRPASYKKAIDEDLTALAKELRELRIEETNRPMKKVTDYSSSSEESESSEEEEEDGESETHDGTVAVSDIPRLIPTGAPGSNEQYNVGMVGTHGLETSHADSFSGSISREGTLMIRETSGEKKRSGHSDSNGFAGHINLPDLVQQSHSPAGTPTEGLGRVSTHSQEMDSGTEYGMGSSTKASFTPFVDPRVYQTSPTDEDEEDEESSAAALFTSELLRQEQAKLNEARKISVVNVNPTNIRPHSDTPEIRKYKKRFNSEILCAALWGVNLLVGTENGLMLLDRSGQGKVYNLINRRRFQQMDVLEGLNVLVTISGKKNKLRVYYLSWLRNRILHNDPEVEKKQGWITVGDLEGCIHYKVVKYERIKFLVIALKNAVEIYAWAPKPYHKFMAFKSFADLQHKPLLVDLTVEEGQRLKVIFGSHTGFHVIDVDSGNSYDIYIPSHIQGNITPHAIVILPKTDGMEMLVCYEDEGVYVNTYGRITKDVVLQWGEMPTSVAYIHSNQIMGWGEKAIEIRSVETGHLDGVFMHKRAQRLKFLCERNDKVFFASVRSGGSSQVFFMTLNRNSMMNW

SMILES	% Competition (EGFR(E746-A750del)) [%]	inhibition at 10 µM (TNIK; TNIK, 10 µM, read-out: % Competition) [%]	inhibition at 10 µM (STK36; STK36, 10 µM, read-out: % Competition) [%]	inhibition at 10 µM (EPHA8; EPHA8, 10 µM, read-out: % Competition) [%]	inhibition at 10 µM (YES; YES, 10 µM, read-out: % Competition) [%]	% Competition [1] [%]	inhibition at 10 µM (TNIK; read-out: % Competition) [%]	inhibition at 10 µM (STK36; read-out: % Competition, STK36, 10 µM) [%]	inhibition at 10 µM (EPHA8; read-out: % Competition) [%]	inhibition at 10 µM (YES; read-out: % Competition) [%]	Percent Competition (EGFR(E746-A750del); compound concentration 10 uM) [%]	inhibition at 10 µM (TNIK; TNIK, compound concentration 10 uM, read-out: Percent Competition) [%]	inhibition at 10 µM (STK36; STK36, compound concentration 10 uM, read-out: Percent Competition) [%]	inhibition at 10 µM (EPHA8; EPHA8, compound concentration 10 uM, read-out: Percent Competition) [%]	inhibition at 10 µM (YES; YES, compound concentration 10 uM, read-out: Percent Competition) [%]	Percent Competition ([1]; compound concentration 10 uM) [%]
Fc1ccc(-c2c(-c3ccncc3)[nH]c3nccnc23)cc1 [Compound 122]	96	96	100	71	73	95										
CC(O)CNc1cc(-c2[nH]c3cccnc3c2-c2ccc(F)cc2)ccn1 (stereo not drawn) [Compound 140]	90					84	< 50	99 to 100	< 50	< 50						
Fc1ccc(-c2c(-c3ccncc3)[nH]c3nccnc23)cc1 [RO1155697-000-005]											96	96	100	71	73	95
